The source of these data is ChEMBL document CHEMBL3351591, “Synthetic (+)-terrein suppresses interleukin-6/soluble interleukin-6 receptor induced-secretion of vascular endothelial growth factor in human gingival fibroblasts” (Bioorg Med Chem, 2014).

Structures are written as SMILES. Calls of active or inactive are those of the source. The rule behind the calls is not given here.

The nature of series [1]: Cytotoxicity against HGF cells assessed as reduction in cell proliferation at >50 uM incubated for 24 hrs by MTT assay. It counts as cell-based. Particulars: human.
The subject of series [2] is HGF. Kind of series: Inhibition of IL-6/soluble IL-6 receptor signaling-induced STAT3 phosphorylation in HGF cells pre-incubated at 10 to 20 uM for before IL-6/soluble IL-6 receptor stimulation for 5 mins by Western blotting method. Type of series: cell-based. Particulars: Homo sapiens. (In general: In western blotting, separated proteins are transferred to a membrane and probed.)

In series [3] the test system is HGF. Kind of series: Inhibition of IL-6/soluble IL-6 receptor signaling-induced JNK1/2 phosphorylation in HGF cells pre-incubated at 10 to 20 uM for before IL-6/soluble IL-6 receptor stimulation for 5 mins by Western blotting method. Type of series: cell-based. Particulars: Homo sapiens.
The test system of series [4] is HGF. The experiment in a line: Inhibition of IL-6/soluble IL-6 receptor signaling-induced ERK1/2 phosphorylation in HGF cells pre-incubated at 10 to 20 uM for before IL-6/soluble IL-6 receptor stimulation for 5 mins by Western blotting method. Type of series: cell-based. Particulars: Homo sapiens.
Series [5] in a line: Cytotoxicity against HGF cells assessed as cell proliferation at <10 uM incubated for 24 hrs by MTT assay. It counts as cell-based. Particulars: human. For orientation: Formazan colour is commonly taken as a measure of viable cells.
Series [6] has as its system HGF. The experiment in a line: Inhibition of endogenous VEGF secretion in HGF cells at 0.01 to 10 uM by ELISA method. The settings on record: Homo sapiens. It counts as functional, cell-based. (In general: An ELISA detects its analyte on a solid surface through an enzyme-linked reagent.)
The subject of series [7] is HGF. Kind of series: Inhibition of IL-6/soluble IL-6 receptor signaling-induced VEGF secretion in HGF cells pre-incubated for 30 mins before IL-6/soluble IL-6 receptor stimulation for 24 hrs by ELISA method. Particulars: Homo sapiens. Type of series: cell-based.

For `C/C=C/C1=CC(=O)[C@H](O)[C@H]1O`, the Activity entry is “Toxic” in series [1] and “Non-toxic” in series [5]. Besides, the inhibition entry in the series on HGF [2], in the series with HGF [3] and in the series on HGF [4] was “Active” each time. Moreover, in the series on HGF [6], the inhibition entry was “inactive”. For the same compound, in the series with HGF [7], the inhibition result is “Dose-dependent effect”.
